Like-named read-outs stand apart in the source and are kept apart here.
Legend:
Assay type in all cases: in vivo
6C3HED lymphosarcoma = assay: animal or person
Method: (§1) The compounds were tested in C3H mice bearing a 6C3HED lymphosarcoma, also known as the Gardner lymphosarcoma (GLS), and in a variety of human tumor xenografts in CD1 nu/nu mice, including CX-1, LX-1, HXGC3, and VRC5. The 6C3HED lymphosarcoma was obtained from the Division of Cancer Treatment, National […] Institute, Tumor Bank, maintained at E. G. and G. Mason Research (Worcester, Mass.). The CX-1 human colon carcinoma and the LX-1 human lung carcinoma xenografts were obtained from the National Cancer Institute. The HXGC3 and VRC5 human colon xenografts were obtained from Dr. P. J. Houghton, St. Jude Children's Hospital in Memphis (see Br. J. Cancer, 37, 213 (1978)). First passage tumor was stored in liquid nitrogen using standard techniques. The transplanted tumor was reestablished from the Tumor Bank every six months or as needed. The tumor was maintained by serial passage twice weekly in C3H mice.
(§2) In the procedure the tumor was removed from passage animals and minced into 1- to 3-mm square fragments using sterile techniques. Tumor pieces were checked for sterility using both Antibiotic Medium 1 and Brain Heart Infusion (Difco, Detroit, Mich.). Recipient mice were shaved and tumor pieces were implanted subcutaneously in the auxiliary region by trocar. Drug therapy on the appropriate schedule was initiated on the day after tumor implant for 6C3HED and after a seven (7) day delay for xenografts (or other delay as noted in Table 2). The compound being tested was mixed with 2.5% Emulphor EL620 from GAF Corporation (1:40 dilution in saline). Food and water were provided ad libitium. The drug was administered orally in 0.5 ml of 2.5% Emulphor (unless otherwise indicated). The tumor was measured the day after treatment ended with two dimensional measurements (width and length) of the tumor taken using automated digital calipers interfaced to a microcomputer. Approximate weight for the tumor was calculated using the following formula [Worzalla, J. F., et al., Invest. New Drugs, 8, 241 (1990], (tumor weight in mg)=(width in mm)^2 ×(length in mm)/2.
(§3) At least one control group of an equal number of mice was treated with the same volume of 2.5% Emulphor only. The percent inhibition was determined by subtracting the ratio of the mean tumor size of the test group relative to the control group from one and multiplying the result times 100.
(§4) The results of several experiments in mice bearing a 6C3HED lymphosarcoma (or other tumor where indicated) when the indicated compounds were administered are provided in Table 2. In Table 2, column 1 gives the Example number of the compound used, column 2 lists the dose level in mg/kg, column 3 provides the percent inhibition of tumor growth, column 4 gives the number of mice which died relative to the total number of animals in the group, column 5 gives the method of administration of the compound, and column 6 gives the dosage schedule. The protocol used with other tumors was the same as with the 6C3HED lymphosarcoma.

VRC5 = conditions: oral, 50 mg/kg, BIDX 10
Method: as §1, §2, §3, §4

LX1 = conditions: for Tox/Tot (mice which died / total): oral, Days 1, 4, 7, 10, from day 7 after implant; for % inhibition of tumor growth: po, 168 h
Method: as §1, §2, §3, §4

[1] = oral, 150 mg/kg, Days 1, 3, 5, 7

Structure (SMILES): CCCCN=S(=O)(NC(=O)Nc1ccc(Cl)cc1)c1ccc(C)cc1 (stereo not drawn) [Example 7, N-[[(4-chlorophenyl)amino]carbonyl]-N'-butyl-4-methylbenzenesulfonimidamide]
- inhibition in vivo at 18.75 mg/kg (6C3HED lymphosarcoma; Mus musculus, 6C3HED, po, read-out: % inhibition of tumor growth, oral, 18.75 mg/kg, BIDX 10): 21%
- inhibition in vivo at 37.5 mg/kg (6C3HED lymphosarcoma; Mus musculus, 6C3HED, po, read-out: % inhibition of tumor growth, oral, 37.5 mg/kg, BIDX 10): 45%
- inhibition in vivo at 75 mg/kg (6C3HED lymphosarcoma; Mus musculus, 6C3HED, po, read-out: % inhibition of tumor growth, oral, 75 mg/kg, BIDX 10): 69%
- inhibition in vivo at 150 mg/kg (6C3HED lymphosarcoma; Mus musculus, 6C3HED, po, read-out: % inhibition of tumor growth, oral, 150 mg/kg, BIDX 10): 88%
- Tox/Tot (mice which died / total) (6C3HED lymphosarcoma; oral, 18.75 mg/kg, BIDX 10): 0/10
- Tox/Tot (mice which died / total) (6C3HED lymphosarcoma; oral, 37.5 mg/kg, BIDX 10): 0/10
- Tox/Tot (mice which died / total) (6C3HED lymphosarcoma; oral, 75 mg/kg, BIDX 10): 0/10
- Tox/Tot (mice which died / total) (6C3HED lymphosarcoma; oral, 150 mg/kg, BIDX 10): 0/10
- % inhibition of tumor growth (VRC5): 0%
- Tox/Tot (mice which died / total) (VRC5): 0/10

Structure (SMILES): Cc1cc(S(=N)(=O)NC(=O)Nc2ccc(Cl)cc2)cc(C)c1C (stereo not drawn) [Example 45, N-[[(4-chlorophenyl)amino]carbonyl]-3,4,5-trimethylbenzenesulfonimidamide]
- inhibition in vivo at 9.37 mg/kg (6C3HED lymphosarcoma; Mus musculus, 6C3HED, po, read-out: % inhibition of tumor growth, oral, 9.37 mg/kg, Days 1, 3, 5, 7): 78%
- inhibition in vivo at 18.75 mg/kg (6C3HED lymphosarcoma; Mus musculus, 6C3HED, po, read-out: % inhibition of tumor growth, oral, 18.75 mg/kg, Days 1, 3, 5, 7): 95%
- inhibition in vivo at 37.5 mg/kg (6C3HED lymphosarcoma; Mus musculus, 6C3HED, po, read-out: % inhibition of tumor growth, oral, 37.5 mg/kg, Days 1, 3, 5, 7): 99%
- inhibition in vivo at 75 mg/kg (6C3HED lymphosarcoma; Mus musculus, 6C3HED, po, read-out: % inhibition of tumor growth, oral, 75 mg/kg, Days 1, 3, 5, 7): 99%
- inhibition in vivo at 150 mg/kg (6C3HED lymphosarcoma; Mus musculus, 6C3HED, po, read-out: % inhibition of tumor growth, oral, 150 mg/kg, Days 1, 3, 5, 7): 100%
- inhibition in vivo at 300 mg/kg (6C3HED lymphosarcoma; Mus musculus, 6C3HED, po, read-out: % inhibition of tumor growth, oral, 300 mg/kg, Days 1, 3, 5, 7): 100%
- Tox/Tot (mice which died / total) (6C3HED lymphosarcoma; oral, 9.37 mg/kg, Days 1, 3, 5, 7): 0/10
- Tox/Tot (mice which died / total) (6C3HED lymphosarcoma; oral, 18.75 mg/kg, Days 1, 3, 5, 7): 0/10
- Tox/Tot (mice which died / total) (6C3HED lymphosarcoma; oral, 37.5 mg/kg, Days 1, 3, 5, 7): 2/10
- Tox/Tot (mice which died / total) (6C3HED lymphosarcoma; oral, 75 mg/kg, Days 1, 3, 5, 7): 1/10
- % inhibition of tumor growth (6C3HED lymphosarcoma; [1]): 99%
- Tox/Tot (mice which died / total) (6C3HED lymphosarcoma; [1]): 2/10
- Tox/Tot (mice which died / total) (6C3HED lymphosarcoma; oral, 300 mg/kg, Days 1, 3, 5, 7): 3/10
- Tox/Tot (mice which died / total) (LX1; 150 mg/kg): 0/9
- Tox/Tot (mice which died / total) (LX1; 300 mg/kg): 0/10
- % inhibition of tumor growth (LX1; 150 mg/kg): 40%
- % inhibition of tumor growth (LX1; 300 mg/kg): 31%

Source: patent US5258406A, “Sulfonimidamides” (priority 1992, dated 1993)
